Test results from the NIST ThermoML archive (doi:10.1016/j.jct.2011.06.015).
± gives the expanded uncertainty stated by the source.

Assay: Boiling temperature at pressure P
Conditions: 101.33 kPa; Liquid; Ebulliometric method (Recirculating still)

In order of rising “Boiling temperature at pressure P” value:
1. Cc1ccccc1 [toluene]  110.80 ± 0.05 °C
2. CCc1ccccc1 [ethylbenzene]  136.20 ± 0.05 °C
3. CC(C)c1ccccc1 [isopropylbenzene]  152.40 ± 0.05 °C
4. O=S1(=O)CCCC1 [sulfolane]  287.33 ± 0.05 °C
